Laboratory results reported in PubChem BioAssay AID330 (DTP/NCI, 2004).
Several values for one entry are separate records, joined by “and”; a condition that tells them apart may be missing. Equal values may be shown once. Toxic doses and inconclusive results are not listed.

Test system: P388 leukemia ip, CD2F1 mice, survival T/C
Assay: NCI In Vivo Anticancer Drug Screen. Data for tumor model P388 Leukemia (intraperitoneal) in CD2F1 (CDF1) mice
Details: endpoint: median survival time, higher = longer survival
In short: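 Mice carrying the transplanted tumor received test compound or vehicle. Survival was recorded in each group, and the value is the treated-group measurement divided by that of the vehicle-treated control group.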

[1] = dose: 60.0 mg/kg/injection, schedule: Q01DX005 (ip), vehicle: saline with Tween-80
[2] = dose: 120.0 mg/kg/injection, schedule: Q01DX005 (ip), vehicle: saline with Tween-80
[3] = dose: 240.0 mg/kg/injection, schedule: Q01DX005 (ip), vehicle: saline with Tween-80
[4] = dose: 50.0 mg/kg/injection, schedule: Q01DX005 (ip), vehicle: saline with Tween-80
[5] = dose: 60.0 mg/kg/injection, schedule: Q01DX005 (ip), vehicle: Klucel (hydroxypropylcellulose) (HPC)
[6] = dose: 120.0 mg/kg/injection, schedule: Q01DX005 (ip), vehicle: Klucel (hydroxypropylcellulose) (HPC)
[7] = dose: 100.0 mg/kg/injection, schedule: Q01DX005 (ip), vehicle: saline with Tween-80
[8] = dose: 200.0 mg/kg/injection, schedule: Q01DX005 (ip), vehicle: saline with Tween-80
[9] = dose: 50.0 mg/kg/injection, schedule: Q01DX005 (ip), vehicle: Klucel (hydroxypropylcellulose) (HPC)
[10] = dose: 100.0 mg/kg/injection, schedule: Q01DX005 (ip), vehicle: Klucel (hydroxypropylcellulose) (HPC)
[11] = dose: 200.0 mg/kg/injection, schedule: Q01DX005 (ip), vehicle: Klucel (hydroxypropylcellulose) (HPC)
[12] = dose: 50.0 mg/kg/injection, schedule: Q01DX009 (ip), vehicle: saline
[13] = dose: 50.0 mg/kg/injection, schedule: Q01DX009 (ip), vehicle: saline with Tween-80
[14] = dose: 100.0 mg/kg/injection, schedule: Q01DX009 (ip), vehicle: saline with Tween-80
[15] = dose: 200.0 mg/kg/injection, schedule: Q01DX009 (ip), vehicle: saline with Tween-80

CCOC(=O)c1cc([N+](=O)[O-])c(SSc2sc(C(=O)OCC)cc2[N+](=O)[O-])s1
T/C (dose: 100.0 mg/kg/injection, schedule: Q04DX003 (ip), vehicle: saline with Tween-80): 104 % of control | T/C (dose: 200.0 mg/kg/injection, schedule: Q04DX003 (ip), vehicle: saline with Tween-80): 96 % of control | T/C (dose: 400.0 mg/kg/injection, schedule: Q04DX003 (ip), vehicle: saline with Tween-80): 95 % of control

O=C(NCCCN1CC1)C(=O)NCCCN1CC1
T/C (dose: 0.78 mg/kg/injection, schedule: Q01DX009 (ip), vehicle: saline): 156 % of control | T/C (dose: 1.56 mg/kg/injection, schedule: Q01DX009 (ip), vehicle: saline): 190 % of control | T/C (dose: 3.13 mg/kg/injection, schedule: Q01DX009 (ip), vehicle: saline): 190 % of control

Cc1c(C(=O)CC2OC(=O)C(Cl)=C2Cl)c2ccccc2n1C(=O)Nc1ccc(Cl)cc1 (stereo not given)
T/C [1]: 93 % of control | T/C [2]: 99 % of control | T/C [3]: 94 % of control

O=C(O)C1=C(C(=O)O)CCC1
T/C (dose: 25.0 mg/kg/injection, schedule: Q01DX009 (ip), vehicle: distilled water + Tween-80): 100 % of control | T/C (dose: 50.0 mg/kg/injection, schedule: Q01DX009 (ip), vehicle: distilled water + Tween-80): 91 % of control | T/C (dose: 100.0 mg/kg/injection, schedule: Q01DX009 (ip), vehicle: distilled water + Tween-80): 89 % of control

CN(C)CCNc1ccc(CO)c2sc3ccccc3c(=O)c12
T/C (dose: 25.0 mg/kg/injection, schedule: Q01DX005 (ip), vehicle: saline with Tween-80): 93 % of control and 94 % of control | T/C [4]: 101 % of control and 114 % of control

CCC/C(=N\NC(N)=Nc1ccc(Cl)cc1)c1ccc(Cl)cc1
T/C (dose: 25.0 mg/kg/injection, schedule: Q04DX002 (ip), vehicle: saline with Tween-80): 99 % of control | T/C (dose: 50.0 mg/kg/injection, schedule: Q04DX002 (ip), vehicle: saline with Tween-80): 100 % of control | T/C (dose: 100.0 mg/kg/injection, schedule: Q04DX002 (ip), vehicle: saline with Tween-80): 104 % of control

CC1(C)[C@H]2Cc3c(ccc4c3C(=O)OC4=O)[C@@H]1C2
T/C (dose: 50.0 mg/kg/injection, schedule: Q01DX005 (ip), vehicle: Klucel + Tween-80): 107 % of control | T/C (dose: 100.0 mg/kg/injection, schedule: Q01DX005 (ip), vehicle: Klucel + Tween-80): 112 % of control

CCOC(=O)c1c(C(=O)Nc2ccccc2)c(-c2ccccc2)n(NC(=O)c2cccc(Cl)c2)c1C
T/C [5]: 98 % of control | T/C [6]: 94 % of control

COc1ccc(N=C(C)C2C(=O)c3ccccc3C2=O)cc1
T/C (dose: 50.0 mg/kg/injection, schedule: Q01DX005 (ip), vehicle: DMSO): 100 % of control | T/C [4]: 113 % of control | T/C (dose: 100.0 mg/kg/injection, schedule: Q01DX005 (ip), vehicle: DMSO): 102 % of control | T/C [7]: 104 % of control | T/C (dose: 200.0 mg/kg/injection, schedule: Q01DX005 (ip), vehicle: DMSO): 102 % of control | T/C [8]: 95 % of control | T/C (dose: 400.0 mg/kg/injection, schedule: Q01DX005 (ip), vehicle: DMSO): 117 % of control | T/C (dose: 800.0 mg/kg/injection, schedule: Q01DX005 (ip), vehicle: DMSO): 99 % of control

CS(=O)(=O)NC(=O)NC(=S)c1ccco1
T/C (dose: 100.0 mg/kg/injection, schedule: Q01DX001 (ip), vehicle: saline with Tween-80): 105 % of control | T/C (dose: 200.0 mg/kg/injection, schedule: Q01DX001 (ip), vehicle: saline with Tween-80): 102 % of control | T/C (dose: 400.0 mg/kg/injection, schedule: Q01DX001 (ip), vehicle: saline with Tween-80): 97 % of control

CCCCc1c(O)c(N=NC(=O)C[N+](C)(C)C)c2ccccc2c1O
T/C [4]: 104 % of control | T/C [7]: 110 % of control | T/C [8]: 108 % of control

CCOP(=S)(N/N=C/c1ccc(C)s1)OCC
T/C [9]: 110 % of control | T/C [10]: 112 % of control | T/C [11]: 117 % of control

Nc1nc(N)nc(-c2cccnc2)n1
T/C (dose: 100.0 mg/kg/injection, schedule: Q01DX001 (ip), vehicle: saline): 109 % of control | T/C (dose: 200.0 mg/kg/injection, schedule: Q01DX001 (ip), vehicle: saline): 118 % of control | T/C (dose: 400.0 mg/kg/injection, schedule: Q01DX001 (ip), vehicle: saline): 100 % of control

N=c1c2ccn(C3OC(CO)C(O)C3O)c2ncn1N (stereo not given)
T/C (dose: 6.25 mg/kg/injection, schedule: Q01DX009 (ip), vehicle: water): 117 % of control | T/C (dose: 50.0 mg/kg/injection, schedule: Q01DX009 (ip), vehicle: water): 121 % of control

COc1ccc2nc(C)c(C)nc2c1Cl
T/C [9]: 98 % of control | T/C [10]: 100 % of control | T/C [11]: 95 % of control

Cc1ccc(Cl)cc1NC(=O)N(C)CCO
T/C [5]: 103 % of control | T/C [6]: 103 % of control | T/C (dose: 240.0 mg/kg/injection, schedule: Q01DX005 (ip), vehicle: Klucel (hydroxypropylcellulose) (HPC)): 94 % of control

CSCC[C@]1(C)C(=O)N(C)[C@H](C(C)(C)C)N1C(=O)c1ccccc1
T/C [1]: 99 % of control | T/C [2]: 100 % of control | T/C [3]: 93 % of control

[Cl][Eu]([Cl])[Cl]
T/C [12]: 89 % of control

CC(=O)OC1CCC2(C)C3CCC4(C)C(=CCC5(C(=O)O)CCC(C)(C)CC45)C3(C)CCC2C1(C)C (stereo not given)
T/C (dose: 0.25 mg/kg/injection, schedule: Q01DX009 (ip), vehicle: saline + Tween-80 + alcohol): 97 % of control | T/C (dose: 0.5 mg/kg/injection, schedule: Q01DX009 (ip), vehicle: saline + Tween-80 + alcohol): 101 % of control | T/C (dose: 1.0 mg/kg/injection, schedule: Q01DX009 (ip), vehicle: saline + Tween-80 + alcohol): 106 % of control | T/C (dose: 2.0 mg/kg/injection, schedule: Q01DX009 (ip), vehicle: saline + Tween-80 + alcohol): 97 % of control | T/C (dose: 4.0 mg/kg/injection, schedule: Q01DX009 (ip), vehicle: saline + Tween-80 + alcohol): 106 % of control

C/C(=N\NC(=S)N(C)C)c1ncccn1
T/C (dose: 12.5 mg/kg/injection, schedule: Q04DX003 (ip), vehicle: Klucel (hydroxypropylcellulose) (HPC)): 107 % of control | T/C (dose: 25.0 mg/kg/injection, schedule: Q04DX003 (ip), vehicle: Klucel (hydroxypropylcellulose) (HPC)): 103 % of control | T/C (dose: 50.0 mg/kg/injection, schedule: Q04DX003 (ip), vehicle: Klucel (hydroxypropylcellulose) (HPC)): 105 % of control

Nc1cc(Cl)nc(N)n1
T/C (dose: 25.0 mg/kg/injection, schedule: Q01DX009 (ip), vehicle: saline with Tween-80): 96 % of control | T/C [13]: 97 % of control | T/C [14]: 101 % of control | T/C [15]: 105 % of control | T/C (dose: 400.0 mg/kg/injection, schedule: Q01DX009 (ip), vehicle: saline with Tween-80): 100 % of control

OC(C/C=C/c1ccccc1)(c1ccccc1)c1ccccc1
T/C [12]: 109 % of control | T/C (dose: 100.0 mg/kg/injection, schedule: Q01DX009 (ip), vehicle: saline): 100 % of control | T/C (dose: 200.0 mg/kg/injection, schedule: Q01DX009 (ip), vehicle: saline): 91 % of control

CCN(CC)Cc1c2c(O)c3c(O)c(C)c4c(c3c1O)C(=O)C(C)(O/C=C/C(OC)C(C)C(OC(C)=O)C(C)C(O)C(C)C(O)C(C)/C=C/C=C(\C)C(=O)N2)O4 (stereo not given)
T/C (dose: 12.5 mg/kg/injection, schedule: Q01DX009 (ip), vehicle: Klucel (hydroxypropylcellulose) (HPC)): 115 % of control | T/C (dose: 25.0 mg/kg/injection, schedule: Q01DX009 (ip), vehicle: Klucel (hydroxypropylcellulose) (HPC)): 93 % of control | T/C [9]: 103 % of control | T/C (dose: 50.0 mg/kg/injection, schedule: Q01DX009 (ip), vehicle: Klucel (hydroxypropylcellulose) (HPC)): 91 % of control | T/C [13]: 110 % of control | T/C [10]: 106 % of control | T/C (dose: 100.0 mg/kg/injection, schedule: Q01DX009 (ip), vehicle: Klucel (hydroxypropylcellulose) (HPC)): 86 % of control | T/C [14]: 90 % of control | T/C [11]: 94 % of control | T/C [15]: 97 % of control | T/C (dose: 400.0 mg/kg/injection, schedule: Q01DX009 (ip), vehicle: Klucel (hydroxypropylcellulose) (HPC)): 111 % of control
